Counter-ions that a name gives are not always drawn.
Tests used:
[1] = tested on: SW48 human colorectal cancer cells (MSI-H cancer cells); assay: SW48 cell viability, CellTiter-Glo, 120 hours (Example B); details: Homo sapiens, SW48, 120 h, read-out: SW48 pCC50, SW48 cell viability, 120 hours incubation (converted); Table 2
[2] = target: T1, recombinant full-length WRN protein (1-1432) (Homo sapiens, UniProt Q14191); assay: WRN unwinding activity, fluorogenic 384-well assay (Example A); assay type: biochemical; details: WRN unwinding activity, 4 hr; Table 2; read-out: 4 hr UNW pIC50 (converted)
T1 construct: recombinant full-length WRN protein (1-1432)
T1 sequence (Q14191 whole entry): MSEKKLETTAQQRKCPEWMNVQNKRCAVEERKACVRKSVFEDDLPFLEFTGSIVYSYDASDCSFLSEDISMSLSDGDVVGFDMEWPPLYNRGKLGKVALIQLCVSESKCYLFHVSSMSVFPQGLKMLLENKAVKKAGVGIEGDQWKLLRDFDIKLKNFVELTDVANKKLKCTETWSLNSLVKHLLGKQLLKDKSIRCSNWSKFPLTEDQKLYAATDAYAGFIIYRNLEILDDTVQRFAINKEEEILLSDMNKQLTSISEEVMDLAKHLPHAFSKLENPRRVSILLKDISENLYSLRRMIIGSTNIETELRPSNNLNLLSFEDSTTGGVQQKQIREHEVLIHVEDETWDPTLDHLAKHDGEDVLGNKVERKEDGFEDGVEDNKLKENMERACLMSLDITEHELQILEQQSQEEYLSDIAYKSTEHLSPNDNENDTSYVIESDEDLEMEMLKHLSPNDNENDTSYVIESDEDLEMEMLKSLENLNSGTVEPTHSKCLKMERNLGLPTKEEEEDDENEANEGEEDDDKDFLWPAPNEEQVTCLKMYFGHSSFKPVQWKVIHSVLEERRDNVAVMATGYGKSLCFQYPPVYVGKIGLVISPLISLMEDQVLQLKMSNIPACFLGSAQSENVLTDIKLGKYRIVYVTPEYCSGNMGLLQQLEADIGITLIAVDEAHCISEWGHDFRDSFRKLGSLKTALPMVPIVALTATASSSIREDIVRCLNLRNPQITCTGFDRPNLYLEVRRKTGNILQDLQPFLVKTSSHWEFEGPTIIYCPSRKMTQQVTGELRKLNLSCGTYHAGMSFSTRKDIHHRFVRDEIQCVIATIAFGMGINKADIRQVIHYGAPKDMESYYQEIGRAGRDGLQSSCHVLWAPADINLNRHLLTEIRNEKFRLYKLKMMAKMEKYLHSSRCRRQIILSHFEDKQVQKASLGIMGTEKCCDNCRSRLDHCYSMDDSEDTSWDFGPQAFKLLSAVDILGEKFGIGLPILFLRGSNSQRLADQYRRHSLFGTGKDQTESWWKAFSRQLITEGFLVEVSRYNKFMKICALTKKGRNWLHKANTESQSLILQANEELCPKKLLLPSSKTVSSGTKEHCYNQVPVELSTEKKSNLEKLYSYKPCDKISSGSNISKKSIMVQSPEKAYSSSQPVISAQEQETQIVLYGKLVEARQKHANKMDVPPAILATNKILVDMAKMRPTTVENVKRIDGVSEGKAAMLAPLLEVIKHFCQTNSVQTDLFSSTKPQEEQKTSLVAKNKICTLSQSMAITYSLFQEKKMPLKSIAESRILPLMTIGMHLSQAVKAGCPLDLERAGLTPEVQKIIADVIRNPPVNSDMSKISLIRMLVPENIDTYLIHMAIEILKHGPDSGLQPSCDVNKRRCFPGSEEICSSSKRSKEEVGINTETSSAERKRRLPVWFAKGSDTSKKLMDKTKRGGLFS
Summary of the method: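 Read-out is end-point unwinding of a fluorophore/quencher duplex (ex 525, em 598 nm) after 60 min with 200 μM ATP and 12 nM DNA (2× stocks), EDTA stop. Compound first sat 4 h with 200 pM WRN (2× stock) in pH 8.0 Tris buffer; four-parameter fit gives pIC50.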

Structure (SMILES) | IC50 [2] [nM] | CC50 [1] [nM]
O=C(O)[C@@H]1[C@@H](c2ccc(-c3ccco3)cc2)CCC[C@H]1C(=O)Nc1ccc(C(F)(F)F)cc1F [Example 9, (1R,2R,6S)-2-((2-fluoro-4-(trifluoromethyl)phenyl)carbamoyl)-6-(4-(furan-2-yl)phenyl)cyclohexane-1-carboxylic acid] | 794 | 25100
O=C(O)[C@@H]1[C@@H](c2ccc(-c3ccccc3)cc2)CCC[C@H]1C(=O)Nc1ccc(C(F)(F)F)cc1F [Example 11, (1R,2S,6R)-2-([1,1′-biphenyl]-4-yl)-6-((2-fluoro-4-(trifluoromethyl)phenyl)carbamoyl)cyclohexane-1-carboxylic acid] | 158 | 15800
Cc1oncc1-c1ccc([C@H]2CCC[C@@H](C(=O)Nc3ccc(C(F)(F)F)cc3F)[C@@H]2C(=O)O)cc1 [Example 53, (1R,2R,6S)-2-((2-fluoro-4-(trifluoromethyl)phenyl)carbamoyl)-6-(4-(5-methylisoxazol-4-yl)phenyl)cyclohexane-1-carboxylic acid] | 15.8 | 7940
CN(c1ccc([C@H]2CCC[C@@H](C(=O)Nc3ccc(C(F)(F)F)cc3F)[C@@H]2C(=O)O)cc1)S(=O)(=O)c1cccc(S(N)(=O)=O)c1 [Example 134, (1R,2R,6S)-2-((2-fluoro-4-(trifluoromethyl)phenyl)carbamoyl)-6-(4-((N-methyl-3-sulfamoylphenyl)sulfonamido)phenyl)cyclohexane-1-carboxylic acid] | 7.94 | 12600
CN(c1ccc([C@H]2CCC[C@@H](C(=O)Nc3ccc(C(F)(F)F)cc3F)[C@@H]2C(=O)O)cc1)S(=O)(=O)c1ccc2c(c1)CN(C(=O)C(F)(F)F)CC2 [Example 108, (1R,2R,6S)-2-((2-fluoro-4-(trifluoromethyl)phenyl)carbamoyl)-6-(4-((N-methyl-2-(2,2,2-trifluoroacetyl)-1,2,3,4-tetrahydroisoquinoline)-7-sulfonamido)phenyl)cyclohexane-1-carboxylic acid] | 3.16 | 2000
Cc1nc2cc(S(=O)(=O)N(C)c3ccc([C@H]4CCC[C@@H](C(=O)Nc5ccc(C(F)(F)F)cc5F)[C@@H]4C(=O)O)cc3)cc([C@@H]3CCCNC3)c2n1C (single isomer, unassigned) [Example 268, (1R,2R,6S)-2-((2-fluoro-4-(trifluoromethyl)phenyl)carbamoyl)-6-(4-((N,1,2-trimethyl-7-((S*)-piperidin-3-yl)-1H-benzo[d]imidazole)-5-sulfonamido)phenyl)cyclohexane-1-carboxylic acid hydrochloride] | 0.794 | 15800
N#Cc1cc([C@H]2CCC[C@@H](C(=O)Nc3ccc(C(F)(F)F)cc3F)[C@@H]2C(=O)O)ccc1Br (single isomer, unassigned) [Example 230] | 100 | 7940
CCO[C@@H]1C[C@H](COc2ccc(C(F)(F)F)cc2)[C@@H](C(=O)O)[C@H](c2ccc(N(C)S(=O)(=O)c3ccc4c(c3)nc(C)n4C)cc2)C1 (single isomer, unassigned) [Example 220] | 316 | 15800
CN(c1ccc([C@H]2CCC[C@@H](C(=O)Nc3ccc(C(F)(F)F)cc3F)[C@@H]2C(=O)O)cc1)S(=O)(=O)c1cccc(C2OCCO2)c1 [Example 118, (1R,2S,6R)-2-(4-((3-(1,3-dioxolan-2-yl)-N-methylphenyl)sulfonamido)phenyl)-6-((2-fluoro-4-(trifluoromethyl)phenyl)carbamoyl)cyclohexane-1-carboxylic acid] | 2 | 1260
Cc1nc2cc(S(=O)(=O)N3CCOc4cc([C@H]5CCC[C@@H](C(=O)Nc6ccc(C(F)(F)F)cc6F)[C@@H]5C(=O)O)ccc43)ccc2n1C (single isomer, unassigned) [Example 241] | 5.01 | 1260
N#Cc1cscc1-c1ccc([C@H]2CCC[C@@H](C(=O)Nc3ccc(C(F)(F)F)cc3F)[C@@H]2C(=O)O)cc1 [Example 32, (1R,2S,6R)-2-(4-(4-cyanothiophen-3-yl)phenyl)-6-((2-fluoro-4-(trifluoromethyl)phenyl)carbamoyl)cyclohe xane-1-carboxylic acid] | 79.4 | 10000
CN(c1ccc([C@H]2CCC[C@@H](C(=O)Nc3ccc(C(F)(F)F)cc3F)[C@@H]2C(=O)O)cc1)S(=O)(=O)c1ccc(O)c(C=O)c1 [Example 248] | 3.16 | 3980
CN(c1ccc([C@H]2CCC[C@@H](C(=O)Nc3ccc(C(F)(F)F)cc3F)[C@@H]2C(=O)O)cc1)S(=O)(=O)c1ccc2c(c1)CCN(C(=O)C(F)(F)F)C2 [Example 111, (1R,2R,6S)-2-((2-fluoro-4-(trifluoromethyl)phenyl)carbamoyl)-6-(4-((N-methyl-2-(2,2,2-trifluoroacetyl)-1,2,3,4-tetrahydroisoquinoline)-6-sulfonamido)phenyl)cyclohexane-1-carboxylic acid] | 2.51 | 1580

Now from value to compound, other results behind:

IC50 [2] [nM] | Structure (SMILES) | CC50 [1] [nM]
7.94 | Cc1nc2cc(S(=O)(=O)N(C)c3ccc([C@H]4CCC[C@@H](C(=O)Nc5ccc(C(F)(F)F)cc5F)[C@@H]4C(=O)O)cc3)ccc2n1C (racemic) [Example 81, rac-(1R,2R,6S)-2-((2-fluoro-4-(trifluoromethyl)phenyl)carbamoyl)-6-(4-((N,1,2-trimethyl-1H-benzo[d]imidazole)-5-sulfonamido)phenyl)cyclohexane-1-carboxylic acid] | 1260
79.4 | Cc1nc2cc(S(=O)(=O)N(C)c3ccc([C@@H]4C[C@H](N5CCOCC5)C[C@H](C(=O)Nc5ccc(C(F)(F)F)cc5F)[C@H]4C(=O)O)cc3)ccc2n1C (relative stereo) [Example 338, rel-(1R,2R,4R,6S)-2-((2-fluoro-4-(trifluoromethyl)phenyl)carbamoyl)-4-morpholino-6-(4-((N,1,2-trimethyl-1H-benzo[d]imidazole)-5-sulfonamido)phenyl)cyclohexane-1-carboxylic acid] | 15800
1.58 | Cc1nc2cc(S(=O)(=O)N(C)c3ccc([C@H]4C[C@H](N)C[C@@H](C(=O)Nc5ccc(C(F)(F)F)cc5F)[C@@H]4C(=O)O)cc3)ccc2n1C (stereo in doubt) [Example 300, rel-(1R,2R,4S,6S)-4-amino-2-((2-fluoro-4-(trifluoromethyl)phenyl)carbamoyl)-6-(4-((N,1,2-trimethyl-1H-benzo[d]imidazole)-5-sulfonamido)phenyl)cyclohexane-1-carboxylic acid] | 12600
6.31 | CCO[C@@H]1CC[C@@H](C(=O)Nc2ccc(C(F)(F)F)cc2F)[C@H](C(=O)O)[C@H]1c1ccc(N(C)S(=O)(=O)c2ccc3c(c2)nc(C)n3C)cc1 (racemic) [Example 371, rac-(1R,2S,3R,6R)-3-ethoxy-6-((2-fluoro-4-(trifluoromethyl)phenyl)carbamoyl)-2-(4-((N,1,2-trimethyl-1H-benzo[d]imidazole)-5-sulfonamido)phenyl)cyclohexane-1-carboxylic acid] | 1000
1.58 | Cc1nc2cc(S(=O)(=O)N(C)c3ccc([C@H]4COC[C@@H](C(=O)Nc5ccc(C(F)(F)F)cc5F)[C@@H]4C(=O)O)cc3)ccc2n1C (racemic) [Example 232, rac-(3R,4S,5R)-3-((2-fluoro-4-(trifluoromethyl)phenyl)carbamoyl)-5-(4-((N,1,2-trimethyl-1H-benzo[d]imidazole)-5-sulfonamido)phenyl)tetrahydro-2H-pyran-4-carboxylic acid] | 1260
1580 | Cc1nc2cc(S(=O)(=O)N(C)c3ccc([C@@H]4C[C@H](OCC5CCOCC5)C[C@H](C(=O)Nc5ccc(C(F)(F)F)cc5F)[C@H]4C(=O)O)cc3)ccc2n1C (stereo in doubt) [Example 354, rel-(1R,2R,4R,6S)-2-((2-fluoro-4-(trifluoromethyl)phenyl)carbamoyl)-4-((tetrahydro-2H-pyran-4-yl)methoxy)-6-(4-((N,1,2-trimethyl-1H-benzo[d]imidazole)-5-sulfonamido)phenyl)cyclohexane-1-carboxylic acid] | 20000
3.98 | Cc1nc2cc(S(=O)(=O)N(c3ccc([C@H]4CCC[C@@H](C(=O)Nc5ccc(C(F)(F)F)cc5F)[C@@H]4C(=O)O)cc3)C3CC3)ccc2n1C [Example 238, (1R,2S,6R)-2-(4-((N-cyclopropyl-1,2-dimethyl-1H-benzo[d]imidazole)-5-sulfonamido)phenyl)-6-((2-fluoro-4-(trifluoromethyl)phenyl)carbamoyl)cyclohexane-1-carboxylic acid] | 2000
15.8 | Cc1nc2cc(S(=O)(=O)N(C)c3ccc([C@H]4C[C@H](N5CCC(F)(F)C5)C[C@@H](C(=O)Nc5ccc(C(F)(F)F)cc5F)[C@@H]4C(=O)O)cc3)ccc2n1C (stereo in doubt) [Example 304, rel-(1R,2R,4S,6S)-4-(3,3-difluoropyrrolidin-1-yl)-2-((2-fluoro-4-(trifluoromethyl)phenyl)carbamoyl)-6-(4-((N,1,2-trimethyl-1H-benzo[d]imidazole)-5-sulfonamido)phenyl)cyclohexane-1-carboxylic acid] | 12600
10 | Cc1nc2cc(S(=O)(=O)N(C)c3ccc([C@H]4C[C@@H](Oc5ccccc5)C[C@@H](C(=O)Nc5ccc(C(F)(F)F)cc5F)[C@@H]4C(=O)O)cc3)ccc2n1C (single isomer, unassigned) [Example 152] | 2000
1.58 | CN(c1ccc([C@H]2CCC[C@@H](C(=O)Nc3ccc(C(F)(F)F)cc3F)[C@@H]2C(=O)O)cc1)S(=O)(=O)c1ccc2[nH]cnc2c1 (single isomer, unassigned) [Example 86] | 2510
